The subject of data set [1] is E. coli DH10B-T7His-Theo4. In kind it is cell-based, Escherichia coli.
Method: The performance of the cascade was measured using GFPuv expression (FIG. 12). Specifically, the theophylline dependency of the cascade at 0.8 mg/L rhamnose was measured. […] Additionally, expression of GFPuv over a wide range of rhamnose and theophylline concentrations was determined.
E. coli DH10B-T7His-Theo4 was grown overnight at 37° C. in LB medium containing kanamycin (50 mg/L). A 96 well 2 ml culture plate (Greiner) was filled with a concentrate of theophylline and L-rhamnose. […] Culture plates were incubated at 37° C. overnight under continuous shaking. The bacteria were centrifuged for 10 minutes at 4700 rpm in a Sorval Legend centrifuge. The supernatant was cleared and the cell pellet was resuspended in 500 μL 50 mM Tris-HCl pH 7.5. After resuspension, the plates were incubated at 37° C. for 1 hour to allow maturation of the GFPuv. 100 μL of suspension was pipetted into a 98 well black plate with clear bottom (Perkin Elmer) and measured with a Synergy MX plate reader. The cell density was measured by scattering at 600 nm and the fluorescence was measured at an excitation wavelength of 385 nm with a width of 20 nm and an emission wavelength of 508 nm with 20 nm width with a gain of 50. The background fluorescence and background scattering were subtracted and the fluorescence was divided by the scattering at 600 nm. The background fluorescence of bacteria without either GFPuv or T7His polymerase was negligible, but the fluorescence caused by other components than GFPuv in the bacteria was still subtracted.
The theophylline dependency of the cascade in response to differing concentrations of rhamnose was measured. E. coli DH10B-T7His-Theo4 diluted from an overnight culture were grown overnight in a 2 mL culture plate containing a variable amount of L-rhamnose and theophylline. The medium was cleared and the bacteria were resuspended in 50 mM Tris-HCl pH 7.5. The fluorescence was measured at an excitation wavelength of 385 nm and an emission wavelength of 508 nm. The cell density was measured by scattering at 600 nm.
The test system of data set [2] is thyA knockout strain of E. coli. The following applies: single theophylline-dependent intron, background subtracted; cited from earlier work.
Data set [3] deals with thyA-deficient E. coli DH10B strain. Here is the method: A comparison of a single intron construct with a construct of the present invention featuring a tandem self-splicing intron was made (FIG. 9). Growth (OD600) was plotted against time (minutes) in the presence (1 mM) and absence (0 mM) of theophylline for the construct designed by Thompson et al. (Thompson et al. 2002 BMC Biotechnol. 2: 21) utilising one theophylline-dependent intron in thyA, in a thyA-deficient E. coli DH10B strain (FIG. 9A). […] Growth was measured in the same way for a construct containing an E. coli thyA gene interrupted by two theophylline-dependent introns, which was transformed into a thyA-deficient E. coli DH10B strain. The overnight growth was plotted against the theophylline concentration in the medium (FIG. 9B).

Take `C[C@H](O)[C@H](O)[C@@H](O)[C@@H](O)C=O` [rhamnose, L-rhamnose]: the “background expression, % of the maximum expression” value in data set [1] (fully induced with rhamnose, theophylline absent, one intron cascade) is on record as “about 7.5%”.
As for `Cn1c(=O)c2[nH]cnc2n(C)c1=O` [theophylline], the “theophylline-induced growth, % of the parental intron” value in data set [2] is given as “approximately 40%”. The “concentration above which theophylline became slightly toxic” value in data set [3] (overnight growth, E. coli DH10B thyA-deficient) is “Above 1 mM”. The Kd in data set [3] (read-out: apparent kd value, Michaelis-Menten-like profile of overnight growth vs theophylline concentration, two introns in thyA) fell in the range of 100 to 200 µM. The “fold-change in GFPuv fluorescence caused by theophylline” value in data set [1] (at any L-rhamnose concentration) is “around 15 times”. In addition, in data set [1] (fully induced with rhamnose and theophylline), the “signal of fully induced system relative to strong TacI promoter (pSC034f)” value was 5-6 times.

The values are drawn from patent publication US20180119156A1, “[…] GENE EXPRESSION” (priority 2015, published 2018).
